In PubChem BioAssay (NCI):
Values joined by “and” are separate entries in the source; they are usually repeats but may differ in a detail not shown here. Equal values may be shown once.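 Tested at 5 concentrations; 48 h exposure; 96-well plates; endpoints linearly interpolated, else capped at highest concentration. GI50 marks 50% less growth. Definition used: TGI = concentration required for complete inhibition of growth.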

Experiments:
Experiment in all cases: inhibition of tumour cell growth, NCI panel, 48 h
COLO 205 colon = system: COLO 205 colon
KM12 colon = system: KM12 colon
K-562 leukemia = system: K-562 leukemia
SNB-75 CNS = system: SNB-75 CNS
EKVX NSCLC = system: EKVX NSCLC
NCI-H460 lung = system: NCI-H460 lung
A498 renal = system: A498 renal
CCRF-CEM leukemia = system: CCRF-CEM leukemia
TK-10 renal = system: TK-10 renal
LOX IMVI melanoma = system: LOX IMVI melanoma

Structure (SMILES) | GI50 (COLO 205 colon) [µM] | TGI (COLO 205 colon) [µM] | GI50 (KM12 colon) [µM] | TGI (KM12 colon) [µM] | GI50 (K-562 leukemia) | TGI (K-562 leukemia) [µM] | GI50 (SNB-75 CNS) | TGI (SNB-75 CNS) [µM] | GI50 (EKVX NSCLC) | TGI (EKVX NSCLC) [µM] | GI50 (NCI-H460 lung) [µM] | TGI (NCI-H460 lung) [µM] | GI50 (A498 renal) [µM] | TGI (A498 renal) [µM] | GI50 (CCRF-CEM leukemia) | TGI (CCRF-CEM leukemia) [µM] | GI50 (TK-10 renal) | TGI (TK-10 renal) [µM] | GI50 (LOX IMVI melanoma) [µM] | TGI (LOX IMVI melanoma) [µM]
O=S(=O)(Nc1ccc(Cl)c(C(F)(F)F)c1)c1ccc(-c2cnc(C3CC3)o2)cc1 | 0.419 | 2.33 | 0.187 | 7.36 | 0.117 µM | > 100 | 0.125 µM | 1.72 | 1.34 µM | 9.29 | 0.102 | 10 | 0.0814 | 1.23 | 0.285 µM | > 25.1 | 1.8 µM | 9.58 | 0.394 | 3.22
CN/N=C(\C)CC(=O)Nc1cccc(Cl)c1C | – | > 100 | – | > 100 | – | > 100 | – | > 100 | – | > 100 | – | > 100 | – | > 100 | – | > 100 | – | > 100 | – | > 100
O=C1C=C(Br)C(=O)C(Br)=C1 | – | > 100 | – | > 100 | – | > 100 | – | > 100 | – | > 100 | – | > 100 | – | > 100 | – | > 81.6 | – | > 100 | – | > 31.6
NC(N)=NC(N)=NCCc1ccccc1 | > 100 | > 100 | > 100 | > 100 | 66.6 µM and 30.8 µM | > 100 | > 100 µM and 81.2 µM | > 100 | 6.79 µM and 7.74 µM | > 100 | > 100 | > 100 | – | > 100 | 56.1 µM and > 100 µM | > 100 | 58.6 µM and > 100 µM | > 100 | > 100 | > 100
O=C(Nc1cc(C(F)(F)F)ccc1Cl)C(=O)C(C(=O)c1ccc2ccccc2c1)C1OC(=O)c2ccccc21 (centres undefined) | – | 37.3 | – | 27.4 | – | 49.6 | – | 21.7 | – | 34.8 | – | 20.7 | – | 20.8 | – | 33.7 | – | 40.3 | – | 25.7
C/C=C(/C)C(=O)OC1C=C(CO)C(=O)C(OC(=O)/C(C)=C\C)C1C(C)C (centres undefined) | 0.823 | 2.75 | 1.45 | 3.02 | 0.401 µM | 19.2 | 1.4 µM | 2.73 | 1.75 µM | 3.22 | 1.25 | 2.94 | 1.55 | 2.95 | 0.321 µM | 4.19 | 1.38 µM | 2.79 | 0.604 | 1.75
CNC(=O)OCc1nc(S(C)=O)n(C)c1COC(=O)NC (centres undefined) | – | > 62.6 | – | > 100 | – | > 100 | – | > 100 | – | > 100 | – | > 100 | – | > 65.6 | – | > 100 | – | > 100 | – | > 100
Fc1cccc(F)c1C1SCc2nc3ccccc3n21 (centres undefined) | – | > 100 | – | > 100 | – | > 100 | – | > 100 | – | > 100 | – | > 100 | – | > 100 | – | > 100 | – | > 100 | – | > 100
CC(=O)O[C@H]1CCC2[C@@H]3CCC4C(=O)c5oncc5C[C@]4(C)C3CC[C@@]21C (some centres undefined) | – | > 100 | – | > 100 | – | > 100 | – | > 100 | – | > 100 | – | > 100 | – | > 100 | – | > 100 | – | > 100 | – | > 100
